Experimental findings from patent US20110245218A1 (priority 2010, published 2011) are described below.

One may read the melting point as the temperature of the solid-liquid transition. As to `CN1C(=O)C(S)=C(S)C1=O`, the melting point fell in the range of 145 to 148 °C.

Take `CN1C(=O)C(SC(=N)N)=C(SC(=N)N)C1=O` [Compound 1, [(1-methyl-2,5-dioxo-2,5-dihydro-1H-pyrrole-3,4-diyl)disulphanediyl]bis(aminomethaniminium) dichloride]: the melting point lay in the range of 163 to 164 °C. For the compound `CN1C(=O)C(S)=C(SC(=N)N)C1=O` [Compound 27, 4-{[amino(iminio)methyl]sulphanyl}-1-methyl-2,5-dioxo-2,5-dihydro-1H-pyrrole-3-thiolate], the melting point was 150 to 152 °C.
